The results in this text go back to ChEMBL document CHEMBL3822389, “New insights into 3-(aminomethyl)naphthoquinones: Evaluation of cytotoxicity, electrochemical behavior and search for structure-activity correlation” (Bioorg Med Chem Lett, 2016).

For orientation: IC50 means the concentration that gives 50% inhibition. Higher therefore signals a need for much substance.

Experiment [1] can be described thus: Cytotoxicity against human HCT8 cells after 72 hrs by MTT assay. It is filed as functional, cell-based, HCT-8. A general note: Formazan colour is commonly taken as a measure of viable cells.
Another experiment has as its system MDA-MB-435. The experiment can be described thus: Cytotoxicity against human MDA-MB-435 cells after 72 hrs by MTT assay. The class given is functional, cell-based.
Experiment [2] is described as follows: Cytotoxicity against human HL60 cells after 72 hrs by MTT assay. It is filed as functional, cell-based, HL-60.
Experiment [3] can be described thus: Cytotoxicity against human SF295 cells after 72 hrs by MTT assay. It is filed as functional, cell-based, SF-295.

Some results are limits rather than exact numbers.

For the molecule `O=C1C(O)=C(C(NCc2ccccn2)c2ccccc2)C(=O)c2ccccc21` (stereo not given) [listing 1 of 2 here], the IC50 in experiment [1] (hct-8) was found to be 6.3 µM; in the experiment on MDA-MB-435 (mda-mb-435), 3.6 µM; in experiment [2] (hl-60) it was 5.4 µM; in experiment [3] (sf-295), 13.5 µM.

With `CCCCNC(C1=C(O)C(=O)c2ccccc2C1=O)c1ccccc1O` (stereo not given), the IC50 was 20.5 µM in experiment [1] (hct-8); 25.6 µM in the experiment with MDA-MB-435 (mda-mb-435); 6.5 µM in experiment [2] (hl-60); 33.3 µM in experiment [3] (Homo sapiens, SF-295, 72 h).

Take `O=C1C(O)=C(C(NCc2ccccn2)c2ccccc2)C(=O)c2ccccc21` (stereo not given) [listing 2 of 2 here]: the IC50 in experiment [1] (hct-8) was 14.3 µM; in the experiment with MDA-MB-435 (mda-mb-435), over 40 µM; in experiment [2] (hl-60) it was over 40 µM; in experiment [3] (sf-295), over 40 µM.

Regarding `O=C1C(O)=C(C(NCCCCl)c2ccccc2O)C(=O)c2ccccc21` (stereo not given), the 50% inhibitory concentration (IC50) stood at 17.7 µM in experiment [1] (Homo sapiens, HCT-8, 72 h); 30.1 µM in the experiment with MDA-MB-435 (Homo sapiens, MDA-MB-435, 72 h); 8.1 µM in experiment [2] (Homo sapiens, HL-60, 72 h); 17.5 µM in experiment [3] (Homo sapiens, SF-295, 72 h).

Consider `O=C1C(O)=C(C(NCc2ccccc2)c2ccccc2O)C(=O)c2ccccc21` (stereo not given), for which the IC50 is 15.6 µM in experiment [1] (hct-8); 18.9 µM with MDA-MB-435 (mda-mb-435); 3.9 µM in experiment [2] (Homo sapiens, HL-60, 72 h); 23.1 µM in experiment [3] (Homo sapiens, SF-295, 72 h).

For the molecule `CCCCNC(C1=C(O)C(=O)c2ccccc2C1=O)c1cc(Br)ccc1O` (stereo not given), the IC50 in experiment [1] (hct-8) is 12.5 µM; in the experiment with MDA-MB-435 (mda-mb-435), 23.9 µM; in experiment [2] (hl-60) it was 6.2 µM; in experiment [3] (Homo sapiens, SF-295, 72 h) it was 21.4 µM.

Take `CCCCNC(C1=C(O)C(=O)c2ccccc2C1=O)c1cc(C)ccc1O` (stereo not given) [listing 1 of 2 here]: the IC50 is 5.6 µM in experiment [1] (hct-8), 11 µM in the experiment on MDA-MB-435 (mda-mb-435), 1.6 µM in experiment [2] (hl-60) and 5.5 µM in experiment [3] (sf-295).

Turning to `CCCCCCCNC(C1=C(O)C(=O)c2ccccc2C1=O)c1ccccc1O` (stereo not given), the IC50 came out at 19.7 µM in experiment [1] (Homo sapiens, HCT-8, 72 h); 33.3 µM in the experiment on MDA-MB-435 (Homo sapiens, MDA-MB-435, 72 h); 7.7 µM in experiment [2] (Homo sapiens, HL-60, 72 h); 18.9 µM in experiment [3] (Homo sapiens, SF-295, 72 h).

As to `O=C1C(O)=C(C(NCc2ccccc2)c2cc(Br)ccc2O)C(=O)c2ccccc21` (stereo not given), the IC50 is 14.9 µM in experiment [1] (hct-8); 25.2 µM in the experiment on MDA-MB-435 (mda-mb-435); 8.4 µM in experiment [2] (Homo sapiens, HL-60, 72 h); 17.4 µM in experiment [3] (Homo sapiens, SF-295, 72 h).

Consider `O=C1C(O)=C(C(NCc2ccco2)c2ccccc2O)C(=O)c2ccccc21` (stereo not given) [listing 1 of 2 here], for which the IC50 in experiment [1] (hct-8) turned out to be 3 µM; in the experiment with MDA-MB-435 (mda-mb-435), 2.9 µM; in experiment [2] (hl-60), 1.2 µM; in experiment [3] (sf-295), 1.8 µM.

As to `CC(C)(C)OC(=O)NCCNC(C1=C(O)C(=O)c2ccccc2C1=O)c1ccccc1O` (stereo not given), the IC50 in experiment [1] (Homo sapiens, HCT-8, 72 h) was 10.8 µM; with MDA-MB-435 (Homo sapiens, MDA-MB-435, 72 h) it was 26.3 µM; in experiment [2] (Homo sapiens, HL-60, 72 h) it was 19.2 µM; in experiment [3] (Homo sapiens, SF-295, 72 h), 15.9 µM.

On to `CCCCNC(C1=C(O)C(=O)c2ccccc2C1=O)c1cc(C)ccc1O` (stereo not given) [listing 2 of 2 here], for which the IC50 in experiment [1] (hct-8) amounted to 17 µM; in the experiment with MDA-MB-435 (mda-mb-435), 26.5 µM; in experiment [2] (hl-60), 6 µM; in experiment [3] (sf-295) it was 29.6 µM.

As to `CC(C)(C)OC(=O)NCCCNC(C1=C(O)C(=O)c2ccccc2C1=O)c1ccccc1O` (stereo not given), the IC50 is 22.7 µM in experiment [1] (Homo sapiens, HCT-8, 72 h); 37.8 µM in the experiment on MDA-MB-435 (Homo sapiens, MDA-MB-435, 72 h); 17.2 µM in experiment [2] (Homo sapiens, HL-60, 72 h); 26 µM in experiment [3] (Homo sapiens, SF-295, 72 h).

Take `Cc1ccc(O)c(C(NCc2ccccc2)C2=C(O)C(=O)c3ccccc3C2=O)c1` (stereo not given): the IC50 in experiment [1] (hct-8) stood at 11.3 µM; with MDA-MB-435 (mda-mb-435) it was 15.8 µM; in experiment [2] (Homo sapiens, HL-60, 72 h) it was 7.2 µM; in experiment [3] (Homo sapiens, SF-295, 72 h), 8.5 µM.

In the case of `O=C1C(O)=C(C(NCc2ccco2)c2ccccc2O)C(=O)c2ccccc21` (stereo not given) [listing 2 of 2 here], the IC50 stood at 14.4 µM in experiment [1] (hct-8); 20.2 µM in the experiment with MDA-MB-435 (mda-mb-435); 1.1 µM in experiment [2] (Homo sapiens, HL-60, 72 h); 23.4 µM in experiment [3] (sf-295).
